Results on eleven compounds are retold here after ChEMBL document CHEMBL1201862, “PubChem BioAssay data set” (2004).

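48-hour exposure; five concentrations; linearly interpolated endpoints. GI50: concentration for 50% inhibition of growth.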 Calls of active or inactive are those of the source. No stated cut-off is given here; in the data, active = GI50 up to about 1.1 µM and inactive = higher.

Some test systems named below: KM12; NCI-H522; A549; MCF7; 786-0; OVCAR-4; HCT-116; CAKI-1; SN12C; HCC 2998; HOP-92; SNB-75; NCI-H226; TK-10; SK-MEL-5; MDA-N; IGROV-1; LOX IMVI; SR.
Holding throughout (experiment): DTP human tumour cell line panel, 48 h

As usually defined, the GI50 is the concentration that inhibits growth by half. Take `CCOC(=O)Cc1nc2c(O)ncnc2n1C1OC(COC(C)=O)C(OC(C)=O)C1OC(C)=O` (stereo not given): the GI50 in the assay on KM12, in the assay on NCI-H522, in the assay with A549, with MCF7, in the assay with 786-0 and in the assay with OVCAR-4 was > 100 µM (inactive) each time. In addition, the GI50 with HCT-116, with CAKI-1, in the assay with SN12C, in the assay on HCC 2998, with HOP-92 and in the assay with SNB-75 was > 100 µM (inactive) throughout. The GI50 in the assay with NCI-H226, with TK-10, with SK-MEL-5, with MDA-N, in the assay on IGROV-1 and in the assay with LOX IMVI was > 100 µM (inactive) throughout.
Consider `Cc1c2c(C(N)=O)nccc2c(C)c2c1c1ccccc1n2Cc1ccccc1`, for which the GI50 in the assay on KM12 is 21.6 µM (inactive); in the assay with NCI-H522, 23.7 µM (inactive); with A549, 14.8 µM (inactive); in the assay with MCF7, 37 µM (inactive); in the assay on 786-0, 3.86 µM (inactive); in the assay with OVCAR-4, 2.61 µM (inactive). The GI50 was 10 µM (inactive) in the assay on HCT-116; 17.6 µM (inactive) in the assay on CAKI-1; 17.7 µM (inactive) with SN12C; 26.4 µM (inactive) in the assay on HCC 2998; 4.93 µM (inactive) with HOP-92; 5.33 µM (inactive) with SNB-75. The GI50 with NCI-H226 is 23.7 µM (inactive); with TK-10, 15.9 µM (inactive); with SK-MEL-5, 34.8 µM (inactive); in the assay on MDA-N, 29 µM (inactive); in the assay with IGROV-1 it was 16.2 µM (inactive); with LOX IMVI, 4.41 µM (inactive).
`CC1=C(C(=S)Nc2ccc(Cl)c(C(=O)OC(C)C)c2)SCCO1`: the GI50 is 19.4 µM (inactive) with KM12; 21.4 µM (inactive) in the assay with NCI-H522; 31 µM (inactive) in the assay with A549; 32.1 µM (inactive) with MCF7; 16 µM (inactive) in the assay on 786-0; 12.3 µM (inactive) in the assay with OVCAR-4. Besides, the GI50 is 15.3 µM (inactive) in the assay on HCT-116; 24.2 µM (inactive) in the assay with CAKI-1; 16.7 µM (inactive) in the assay on SN12C; 14.7 µM (inactive) with HCC 2998; 18.7 µM (inactive) in the assay with HOP-92; 20.1 µM (inactive) in the assay with SNB-75. Moreover, the GI50 with NCI-H226 is 22.2 µM (inactive); in the assay on TK-10 it was 22.2 µM (inactive); in the assay with SK-MEL-5, 16.9 µM (inactive); with MDA-N it was 18.6 µM (inactive); in the assay on IGROV-1, 16.6 µM (inactive); in the assay on LOX IMVI, 15.5 µM (inactive).
Take `CC(=O)OCC1OC(n2c(N)c(C#N)c(-c3ccc(C)cc3)c(C#N)c2=S)C(OC(C)=O)C(OC(C)=O)C1OC(C)=O` (stereo not given): the GI50 in the assay with KM12 was 79.1 µM (inactive); in the assay with A549, 16 µM (inactive); in the assay on MCF7, 20.1 µM (inactive); in the assay with 786-0 it was 15.7 µM (inactive); in the assay on OVCAR-4 it was 41.9 µM (inactive); in the assay with HCT-116 it was 46.1 µM (inactive). In addition, the GI50 in the assay with CAKI-1 was 63.7 µM (inactive); in the assay on SN12C, 15.6 µM (inactive); with HCC 2998, 16.9 µM (inactive); in the assay on HOP-92, 15.2 µM (inactive); in the assay with SNB-75, 16 µM (inactive); in the assay with NCI-H226, 3.53 µM (inactive). Also, the GI50 in the assay with TK-10 was 18.5 µM (inactive); in the assay on SK-MEL-5, 11.1 µM (inactive); in the assay with MDA-N it was 17.1 µM (inactive); in the assay with IGROV-1, 20.3 µM (inactive); with LOX IMVI, 32.7 µM (inactive).
As for `NNC(=O)CNC(=O)CSc1nnc(COc2ccc(Cl)cc2)n1-c1ccccc1`, the GI50 was > 100 µM (inactive) in the assay on KM12; 41.8 µM (inactive) in the assay with NCI-H522; > 100 µM (inactive) in the assay with A549; > 100 µM (inactive) with MCF7; > 100 µM (inactive) with 786-0; > 100 µM (inactive) in the assay with OVCAR-4. Further, the GI50 in the assay on HCT-116, in the assay with CAKI-1, in the assay with SN12C, in the assay on HCC 2998, in the assay with HOP-92 and with SNB-75 was > 100 µM (inactive) in each case. The GI50 in the assay on NCI-H226, with TK-10, in the assay with MDA-N, in the assay with IGROV-1 and with LOX IMVI was > 100 µM (inactive) each time.
Consider `CC(=O)N1c2ccccc2C(C)(C)OC1C(Cl)(Cl)Cl` (stereo not given), for which the GI50 is 30.1 µM (inactive) in the assay on KM12; 23.3 µM (inactive) in the assay with NCI-H522; 27.7 µM (inactive) in the assay with A549; 23.6 µM (inactive) in the assay on MCF7; 39 µM (inactive) in the assay with 786-0; 42.5 µM (inactive) in the assay with OVCAR-4. Further, the GI50 with HCT-116 was 28.8 µM (inactive); in the assay on CAKI-1, 46.6 µM (inactive); in the assay with SN12C, 29.9 µM (inactive); in the assay on HCC 2998 it was 23.2 µM (inactive); with HOP-92, 21 µM (inactive); in the assay with SNB-75 it was 17.1 µM (inactive). Besides, the GI50 was 87.7 µM (inactive) in the assay with NCI-H226; 35.9 µM (inactive) in the assay on TK-10; 23.8 µM (inactive) in the assay with SK-MEL-5; 26.1 µM (inactive) in the assay with MDA-N; 41.8 µM (inactive) with IGROV-1.
Take `N/C(=N\O)N/N=C/c1cc(Br)cc(Br)c1O`: the GI50 in the assay with KM12 was 5.08 µM (inactive); with NCI-H522, 16.2 µM (inactive); with A549, 5.27 µM (inactive); in the assay on MCF7, 6.21 µM (inactive); in the assay on 786-0 it was 1.91 µM (inactive); in the assay on OVCAR-4 it was 4.23 µM (inactive). Also, the GI50 was 4.24 µM (inactive) in the assay with HCT-116; 0.461 µM (active) with CAKI-1; 1.86 µM (inactive) in the assay with SN12C; 6.53 µM (inactive) in the assay on HCC 2998; 2.86 µM (inactive) in the assay with HOP-92; 2.86 µM (inactive) in the assay with SNB-75. For the same compound, the GI50 in the assay on NCI-H226 was 1.29 µM (inactive); in the assay on TK-10, 5.35 µM (inactive); in the assay on SK-MEL-5 it was 6.89 µM (inactive); with MDA-N, 10.8 µM (inactive); with IGROV-1 it was 0.507 µM (active); in the assay with LOX IMVI, 2.35 µM (inactive).
Regarding `O=C1CC(O)c2c1csc2Br` (stereo not given), the GI50 in the assay with KM12 was 18.7 µM (inactive); in the assay with NCI-H522, 15.5 µM (inactive); in the assay with A549, 28.4 µM (inactive); in the assay with MCF7, 19.8 µM (inactive); in the assay on 786-0, 17.9 µM (inactive); in the assay on OVCAR-4, 31.6 µM (inactive). The GI50 in the assay with HCT-116 is 18.5 µM (inactive); in the assay on CAKI-1, 37.8 µM (inactive); in the assay on SN12C, 20.7 µM (inactive); in the assay with HCC 2998, 19.2 µM (inactive); with SNB-75 it was 26.4 µM (inactive); in the assay with TK-10 it was 8.97 µM (inactive). Besides, the GI50 in the assay on SK-MEL-5 was > 100 µM (inactive); with MDA-N, 22.5 µM (inactive); with IGROV-1, 13.5 µM (inactive); with LOX IMVI, 16.4 µM (inactive).
For the compound `C=C(CCOC)CCC1CCCCC(CN(C)C)C1=O` (stereo not given), the GI50 with KM12, in the assay with NCI-H522, with A549, in the assay with MCF7, with 786-0 and with OVCAR-4 was > 100 µM (inactive) each time. For the same compound, the GI50 with HCT-116, with SR, in the assay on CAKI-1, in the assay with SN12C, in the assay on HCC 2998 and with SNB-75 was > 100 µM (inactive) in each case. The GI50 in the assay on NCI-H226, in the assay with SK-MEL-5, in the assay on MDA-N, with IGROV-1 and with LOX IMVI was > 100 µM (inactive) each time.
Consider `C[C@@H]1CC[C@H]2[C@H](C)C(OC3O[C@@H]4O[C@@]5(C)CC[C@H]6[C@H](C)CC[C@@H]([C@@H]3C)[C@@]46O5)O[C@@H]3O[C@@]4(C)CC[C@@H]1[C@]32O4` (stereo not given in full), for which the GI50 in the assay on KM12, in the assay on NCI-H522, in the assay with A549, in the assay with MCF7, in the assay on 786-0 and in the assay with OVCAR-4 was > 100 µM (inactive) each time. The GI50 in the assay on HCT-116, in the assay on SR, in the assay on CAKI-1, in the assay with SN12C, with HCC 2998 and with SNB-75 was > 100 µM (inactive) in each case. Also, the GI50 in the assay with NCI-H226, in the assay with TK-10, with SK-MEL-5, with MDA-N and with LOX IMVI was > 100 µM (inactive) throughout.
As for `CC(O)(CCCCCl)c1nc2ccccc2s1` (stereo not given), the GI50 in the assay with KM12 is > 100 µM (inactive); with NCI-H522, > 100 µM (inactive); with A549, > 100 µM (inactive); in the assay on MCF7 it was 71.8 µM (inactive); in the assay on 786-0, > 100 µM (inactive); with OVCAR-4, > 100 µM (inactive). The GI50 is 47 µM (inactive) in the assay on HCT-116; 53 µM (inactive) with SR; > 100 µM (inactive) with CAKI-1; > 100 µM (inactive) with SN12C; > 100 µM (inactive) with SNB-75; > 100 µM (inactive) with NCI-H226. Also, the GI50 is > 100 µM (inactive) in the assay with TK-10; 51.4 µM (inactive) in the assay with SK-MEL-5; > 100 µM (inactive) in the assay on MDA-N; > 100 µM (inactive) in the assay on IGROV-1; 48.4 µM (inactive) with LOX IMVI.
